Values of other authors as cited in patent publication US20190298799A1, “CONTROLLED-RELEASE APOPTOSIS MODULATING COMPOSITIONS AND METHODS FOR THE TREATMENT OF OTIC DISORDERS” (Otonomy, Inc., priority 2008, published 2019).

Tests used:
[1] = test system: neurons and otic hair cells
[2] = test system: cochlear culture; conditions: culture first treated with the inhibitor, then neomycin and/or cisplatin

Compound | protection from aminoglycoside ototoxicity [1] | apoptosis in cochlear culture [2]
CC(=O)N[C@@H](CC(C)C)C(=O)N[C@@H](CC(C)C)C(=O)N[C@H](C=O)CCCNC(=N)N [Leupeptine, leupeptine] | protects neurons and otic hair cells from aminoglycoside ototoxicity | 
C[S+]([O-])c1ccc(-c2nc(-c3ccc(F)cc3)c(-c3ccncc3)[nH]2)cc1 (centres unmarked) [SB-203580, 4-(4-Fluorophenyl)-2-(4-methylsulfinylphenyl)-5-(4-pyridyl) 1H-imidazole] |  | apoptosis is decreased
